According to US7119262B1, “Production of transgenic poinsettia” (priority 1997, dated 2006):
Read-outs that look alike come from different tables or passages of the source. Where no end group is shown, it is not given here.

How the values were obtained:
[1] = system: Bemisia; assay: Whitefly artificial feeding study with tryptamine-supplemented diets; format: in vivo, Bemisia tabaci; conditions: artificial diet
Experimental: To assess whether tryptamine was acutely toxic to whitefly, artificial feeding studies were conducted in which whiteflies were fed artificial diets supplemented with a range of tryptamine concentrations.

[2] = system: Pseudomonas syringae; conditions: 24 h
[3] = system: Erwinia carotovora; conditions: 24 h
[4] = system: Phytophthora parasitica (petunia)
[5] = system: Fusarium graminearum; conditions: non-germinated spores, 24 hrs
[6] = system: Rhyzoctonia solani R2; conditions: 24 h
[7] = system: Thielaviopsis basicola; conditions: 24 h
[8] = system: Botrytis cinerea; conditions: 24 h
[9] = system: Phytophthora parasitica (vinca); conditions: vinca isolate, 24 hrs
[10] = system: Fusarium solani; conditions: 24 h
[11] = system: bacterial and fungal phytopathogens; assay: In vitro anti-microbial activity of lytic peptides (statement in words); format: cell-based
[12] = system: ethylene-induced epinasty; conditions: plants sprayed with 4 mM solution, 18 hrs later exposed to ethylene for 24 hours
Experimental: To test for ethylene sensitivity, untransformed and transgenic poinsettia plants were exposed to 15 μl/liter ethylene for 24 hours to induce epinasty.
At 18 hrs after STS treatment, the STS-treated poinsettias were exposed to ethylene for 24 hours.

[13] = petunia isolate, germinated spores, 24 hrs

NCCc1c[nH]c2ccccc12 [Tryptamine, tryptamine]
tryptamine concentration toxic to Bemisia [1]: 50 to 100 µg/mL

GIGKFLHSAKKFGKAFVGEIMNS [Mag 2, magainin 2, reference compound]
Minimum Inhibitory Concentration [2]: 32 µg/mL
Minimum Inhibitory Concentration [3]: 32 µg/mL
Minimum Inhibitory Concentration ([4]; 24 h): >128 µg/mL
Minimum Inhibitory Concentration [5]: 4 to 8 µg/mL
Minimum Inhibitory Concentration [6]: 16 to 32 µg/mL

GIGKFLKSAKKFGKAFVKILNS [MSI-99]
Minimum Inhibitory Concentration ([4]; 24 h): 8 to 16 µg/mL
Minimum Inhibitory Concentration [5]: 4 µg/mL
Minimum Inhibitory Concentration [7]: 4 µg/mL
Minimum Inhibitory Concentration [8]: 8 µg/mL
Minimum Inhibitory Concentration [6]: 16 µg/mL

GMASKAGAIAGKIAKVALKAL-OH [PGL]
Minimum Inhibitory Concentration [2]: >64 µg/mL
Minimum Inhibitory Concentration [3]: 32 µg/mL
Minimum Inhibitory Concentration ([9]; germinated spores): >128 µg/mL
Minimum Inhibitory Concentration ([9]; non-germinated spores): >256 µg/mL
Minimum Inhibitory Concentration [4, 13]: >128 µg/mL
Minimum Inhibitory Concentration [5]: 4 to 8 µg/mL
Minimum Inhibitory Concentration [6]: 16 to 32 µg/mL

KRKRAVKRVGRRLKKLARKIARLGVAF [Line D5-C, D5-C]
Minimum Inhibitory Concentration ([9]; germinated spores): 16 to 32 µg/mL
Minimum Inhibitory Concentration ([9]; non-germinated spores): 16 µg/mL
Minimum Inhibitory Concentration [4, 13]: 16 to 32 µg/mL
Minimum Inhibitory Concentration [10]: 4 µg/mL
Minimum Inhibitory Concentration [7]: 16 µg/mL
Minimum Inhibitory Concentration [6]: 32 to 64 µg/mL

MSI-55 (KIAGKIAKIAGKIAKIAGKIA)
antibacterial and anti-fungal activity in vitro [11]: potent antibacterial and anti-fungal activity

silver thiosulfate [STS]
signs of epinasty or wilting after ethylene treatment [12]: little, if any, signs of epinasty or wilting
